# Experiments:
# Type in all cases: physicochemical
# [1] = Stability with regard to steam autoclaving: viscosity of non-crosslinked hyaluronic acid compositions (rheometer)
# Protocol: For the compositions according to the invention comprising non-crosslinked hyaluronic acid, the viscosity η of the sterilized compositions after the steam autoclaving step is characterized on a TA Instruments AR 2000 Ex rheometer, under controlled constraint conditions, at 25° C. The viscosity value is recorded at a constraint of 0.02 s^−1.
# (§1) For the compositions comprising non-crosslinked hyaluronic acid, the percentage of loss in the viscosity is the value of the difference in the viscosity of the reference composition after steam autoclaving and the viscosity of the composition comprising non-crosslinked hyaluronic acid and a sulphated oligo-polysaccharide or a sulphated monosaccharide after steam autoclaving over the value of the viscosity of the reference composition after steam autoclaving.
# (§2) For these all measurements, a reference composition is formulated, the aqueous solution of sulphated oligo-polysaccharide or of sulphated monosaccharide being replaced by the same amount of aqueous solution of phosphate buffer.
# Nine compositions comprising non-crosslinked hyaluronic acid and a sulphated oligo-polysaccharide or a sulphated monosaccharide at a concentration of 1 mg/g in the composition are prepared according to the procedure described in Example 1.
# A reference composition is also formulated, the aqueous solution of sulphated oligo-polysaccharide or of sulphated monosaccharide being replaced by the same amount of aqueous solution of phosphate buffer.
# A series of five compositions comprising non-crosslinked hyaluronic acid, mannitol and a sulphated oligo-polysaccharide or a sulphated monosaccharide at a concentration of 1 mg/g in the composition is prepared according to the procedure described in Example 3.
# Examples of tests on formulations of KSOS (at different concentrations) with a non-crosslinked gel of Example 1 at the concentrations and ratios described in Table 7 below.
# The gels are sterilized and then characterized by rheology according to Example 8.
# [2] = Stability with regard to steam autoclaving: elastic component G′ of crosslinked hyaluronic acid compositions (rheometer)
# Protocol: For the compositions according to the invention comprising crosslinked hyaluronic acid, the elastic component G′ of the sterilized compositions after the autoclaving step is characterized on a TA Instruments AR 2000 Ex rheometer, under oscillation conditions, at 25° C., the values of the elastic component being recorded at a frequency of 1 Hz.
# as §1, with “crosslinked” for “non-crosslinked”, “elastic component G′” for “viscosity”
# as §2
# A series of four compositions comprising crosslinked hyaluronic acid, mannitol and a sulphated oligo-polysaccharide or a sulphated monosaccharide at a concentration of 1 mg/g in the composition is prepared according to the procedure described in Example 4.
# A reference composition is also formulated, the aqueous solution of sulphated oligo-polysaccharide or of sulphated monosaccharide being replaced by an equivalent amount of aqueous solution of phosphate buffer.
# Examples of tests on formulations of KSOS (at different concentrations) with a 20 mg/g crosslinked NaHA gel (IPN-like gel, sold under the Stylage® M brand), which is the reference gel.
# The gels are sterilized and then characterized.
# The percentage of loss in the elastic component G′ with respect to the reference composition is measured according to Example 8 and the difference between the injectability force, through 30-gauge ½ hypodermic needles, of the reference gel and of the gels comprising potassium sucrose octasulphate is measured.
# Example of test on formulation of KSOS with a gel comprising crosslinked hyaluronic acid at the concentration and at the ratio described in Table 8 below.
# The gels are prepared according to the procedure described in Example 2 and are then characterized by rheology according to Example 8.
# [3] = Solubility of salts of sucrose octasulphate
# [4] = after steam autoclaving, non-crosslinked hyaluronic acid + mannitol + sulphated saccharide at 1 mg/g (procedure of Example 3)
# [5] = after steam autoclaving, non-crosslinked hyaluronic acid + sulphated saccharide at 1 mg/g (procedure of Example 1), viscosity at 25° C., 0.02 s^−1
# [6] = after steam autoclaving, crosslinked hyaluronic acid + mannitol + sulphated saccharide at 1 mg/g (procedure of Example 4), 25° C., 1 Hz
"% of loss in the viscosity with respect to the reference composition [1, 4] [%]","% of loss in the viscosity with respect to the reference composition [1, 5] [%]","% of loss in the elastic component G′ with respect to the reference composition [2, 6] [%]",Compound,further results
,16,,Dextran sulphate(40000) [reference compound],
,94,,Disulphated carrageenan(disaccharide) [reference compound],
,92,,Hexasulphated carrageenan(hexasaccharide) [reference compound],

# The remaining lines, values behind:
Compound,"% of loss in the viscosity with respect to the reference composition [1, 4] [%]","% of loss in the viscosity with respect to the reference composition [1, 5] [%]","% of loss in the elastic component G′ with respect to the reference composition [2, 6] [%]",further results
"O=S(=O)(O)N[C@H]1C(O)O[C@H](CO)[C@@H](O)[C@@H]1O (stereo partly drawn) [D-Glucosamine-2-sulphate, reference compound]",25,87,18,
"N[C@H]1C(O)O[C@H](COS(=O)(=O)O)[C@@H](O)[C@@H]1O (stereo partly drawn) [D-Glucosamine-6-sulphate, reference compound]",90,98,74,
"CC(=O)N[C@H]1C(O)O[C@H](COS(=O)(=O)O)[C@@H](O)[C@@H]1O (stereo partly drawn) [N-Acetyl-D-glucosamine-6-sulphate, reference compound]",60,96,32,
O=S(=O)([O-])OC[C@H]1O[C@@](COS(=O)(=O)[O-])(O[C@H]2O[C@H](COS(=O)(=O)[O-])[C@@H](OS(=O)(=O)[O-])[C@H](OS(=O)(=O)[O-])[C@H]2OS(=O)(=O)[O-])[C@@H](OS(=O)(=O)[O-])[C@@H]1OS(=O)(=O)[O-].[Na+].[Na+].[Na+].[Na+].[Na+].[Na+].[Na+].[Na+] [Sodium sucrose octasulphate],0,0,,solubility compared with the potassium salt [3]: greater than that of the potassium salt
Chondroitin sulphate [reference compound],,62,,
Potassium sucrose octasulphate,0,0,0,"% of loss in the viscosity with respect to the reference composition ([1]; after autoclaving, non-crosslinked NaHA 4 mg/g, KSOS 40 mg/g, [HA]/[SOS] 0.1): 0%; % of loss in the viscosity with respect to the reference composition ([1]; after autoclaving, non-crosslinked NaHA 10 mg/g, KSOS 10 mg/g, [HA]/[SOS] 1): 0%; % of loss in the viscosity with respect to the reference composition ([1]; after autoclaving, non-crosslinked NaHA 10 mg/g, KSOS 20 mg/g, [HA]/[SOS] 0.5): 0%; % of loss in the viscosity with respect to the reference composition ([1]; after autoclaving, non-crosslinked NaHA 20 mg/g, KSOS 10 mg/g, [HA]/[SOS] 2): 0%; % of loss in the viscosity with respect to the reference composition ([1]; after autoclaving, non-crosslinked NaHA 20 mg/g, KSOS 20 mg/g, [HA]/[SOS] 1): 0%; % of loss in the viscosity with respect to the reference composition ([1]; after autoclaving, non-crosslinked NaHA 25 mg/g, KSOS 0.01 mg/g, [HA]/[SOS] 2500): 0%; % of loss in the viscosity with respect to the reference composition ([1]; after autoclaving, non-crosslinked NaHA 25 mg/g, KSOS 0.05 mg/g, [HA]/[SOS] 500): 0%; maximum solubility [3]: 40 mg/g; % of loss in the elastic component G′ with respect to the reference composition ([2]; after autoclaving, crosslinked NaHA 10.3 mg/g, KSOS 25 mg/g, [HA]/[SOS] 0.4 (procedure of Example 2)): 0%; % of loss in the elastic component G′ with respect to the reference composition ([2]; after steam autoclaving, crosslinked hyaluronic acid + mannitol + sulphated saccharide at 1 mg/g (procedure of Example 4), 25° C., 1 Hz, listed as potassium sucrose octasulphate): no loss"
